Reference: patent US10358434B2, “2-(3-pyridinyl)-1H-benzimidazole derivative compound and medicament containing same” (NIHON MEDI-PHYSICS CO., LTD., priority 2014, dated 2019)

Key:
[1] = Plasma stability evaluation (TLC analysis); format: in vitro ADME; details: 37° C., 60 minutes, TLC analysis
In short: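 TLC analysis, using each compound's synthesis conditions, judged stability after methanol was added and samples were centrifuged to remove protein. Beforehand, each tracer had spent 60 minutes at 37° C in pooled heparinized normal human plasma.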

[2] = In vivo kinetics experiment (radioactivity distribution); parameters: species or system Wistar male rat; details: rat i.v., mean ± SD
In short: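 Tissue radioactivity (% ID/g) and adrenal-to-blood, liver, kidney, small intestine, muscle and fat ratios determined at 10, 30 and 60 min post-dose. Tracers (approximately 1 to 3.7 MBq, saline with 1 w/v % ascorbic acid) injected i.v. into caudal vein of anesthetized 9-week male Wistar rats; organs excised, weighed, counted.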

[3] = test system: human adrenal gland section expressing aldosterone-producing adenoma; test: In vitro autoradiography using human adrenal adenoma; format: binding; details: section of FIG. 17(b)
In short: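 Autoradiography readout: PSL in equal-sized ROIs over adenoma (B2) and normal adrenal cortex (B1), expressed as B2/B1 and decay-corrected using half-life, applied activity and plate contact time. Tissue was surgically excised human adrenal, frozen and cut at 7 μm, incubated 10 min with 5-33 kBq/mL tracer in BSA-containing PBS, then imaged after 16-20 h exposure.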

For `Cn1c(-c2cncc(Cn3ccnc3)c2)nc2ccc([123I])cc21` [[^123I] 607, 2-[5-{(1H-imidazol-1-yl)methyl}pyridin-3-yl]-6-[^123I]iodo-1-methyl-1H-benzo[d]imidazole], the “Radiochemical purity after incubation in human plasma” value [1] was 84%, the “Adrenal gland/blood ratio of radioactivity accumulation” value (from here on “Adrenal gland/blood ratio”) ([2]; 10 min after administration) was 64.15 ± 4.03 and the “Adrenal gland/fat ratio of radioactivity accumulation” value (from here on “Adrenal gland/fat ratio”) ([2]; 10 min after administration) was 92.36 ± 15.53. The “Adrenal gland/kidney ratio of radioactivity accumulation” value (“Adrenal gland/kidney ratio” below) ([2]; 10 min after administration) was 5.73 ± 1.00, the “Adrenal gland/liver ratio of radioactivity accumulation” value (from here on “Adrenal gland/liver ratio”) ([2]; 10 min after administration) was 3.85 ± 0.67 and the “Adrenal gland/muscle ratio of radioactivity accumulation” value (from here on “Adrenal gland/muscle ratio”) ([2]; 10 min after administration) was 64.58 ± 8.21. For the same molecule, the “Adrenal gland/small intestine ratio of radioactivity accumulation” value (shortened to “Adrenal gland/small intestine ratio”) ([2]; 10 min after administration) was 3.95 ± 0.40, the “Radioactivity distribution Adrenal gland” value ([2]; 10 min after administration) was 11.13 ± 0.88 % ID/g and the “Radioactivity distribution Bladder (including urine)” value (“Radioactivity distribution Bladder” for short) ([2]; 10 min after administration) was 1.20 ± 0.71 % ID/g. For the same molecule, the “Radioactivity distribution Blood” value ([2]; 10 min after administration) was 0.17 ± 0.02 % ID/g, the “Radioactivity distribution Fat” value ([2]; 10 min after administration) was 0.12 ± 0.02 % ID/g and the “Radioactivity distribution Femur” value ([2]; 10 min after administration) was 0.86 ± 0.02 % ID/g. For the same molecule, the “Radioactivity distribution Heart” value ([2]; 10 min after administration) was 0.66 ± 0.03 % ID/g, the “Radioactivity distribution Kidney” value ([2]; 10 min after administration) was 1.96 ± 0.19 % ID/g and the “Radioactivity distribution Large intestine” value ([2]; 10 min after administration) was 0.12 ± 0.02 % ID/g. The “Radioactivity distribution Liver” value ([2]; 10 min after administration) was 2.93 ± 0.40 % ID/g, the “Radioactivity distribution Lung” value ([2]; 10 min after administration) was 0.90 ± 0.07 % ID/g and the “Radioactivity distribution Muscle (lower limbs)” value ([2]; 10 min after administration) was 0.17 ± 0.02 % ID/g. The “Radioactivity distribution Remaining whole body” value ([2]; 10 min after administration) was 0.27 ± 0.03 % ID/g, the “Radioactivity distribution Small intestine” value ([2]; 10 min after administration) was 2.82 ± 0.12 % ID/g and the “Radioactivity distribution Spleen” value ([2]; 10 min after administration) was 4.93 ± 0.56 % ID/g. For the same molecule, the “Radioactivity distribution Stomach” value ([2]; 10 min after administration) was 0.88 ± 0.20 % ID/g, the “Radioactivity distribution Testis” value ([2]; 10 min after administration) was 0.06 ± 0.01 % ID/g and the “Radioactivity distribution Whole brain” value ([2]; 10 min after administration) was 0.03 ± 0.00 % ID/g. For the same molecule, the “Adrenal gland/blood ratio” value ([2]; 30 min after administration) was 163.89 ± 22.78, the “Adrenal gland/fat ratio” value ([2]; 30 min after administration) was 109.60 ± 14.02 and the “Adrenal gland/kidney ratio” value ([2]; 30 min after administration) was 12.63 ± 4.53. The “Adrenal gland/liver ratio” value ([2]; 30 min after administration) was 15.55 ± 2.37, the “Adrenal gland/muscle ratio” value ([2]; 30 min after administration) was 114.11 ± 13.20 and the “Adrenal gland/small intestine ratio” value ([2]; 30 min after administration) was 2.89 ± 0.23. The “Radioactivity distribution Adrenal gland” value ([2]; 30 min after administration) was 14.61 ± 1.60 % ID/g, the “Radioactivity distribution Bladder” value ([2]; 30 min after administration) was 2.79 ± 0.51 % ID/g and the “Radioactivity distribution Blood” value ([2]; 30 min after administration) was 0.09 ± 0.00 % ID/g. The “Radioactivity distribution Fat” value ([2]; 30 min after administration) was 0.13 ± 0.01 % ID/g, the “Radioactivity distribution Femur” value ([2]; 30 min after administration) was 0.98 ± 0.16 % ID/g and the “Radioactivity distribution Heart” value ([2]; 30 min after administration) was 0.54 ± 0.05 % ID/g. For the same molecule, the “Radioactivity distribution Kidney” value ([2]; 30 min after administration) was 1.24 ± 0.36 % ID/g, the “Radioactivity distribution Large intestine” value ([2]; 30 min after administration) was 0.12 ± 0.01 % ID/g and the “Radioactivity distribution Liver” value ([2]; 30 min after administration) was 0.94 ± 0.06 % ID/g. For the same molecule, the “Radioactivity distribution Lung” value ([2]; 30 min after administration) was 0.72 ± 0.05 % ID/g, the “Radioactivity distribution Muscle (lower limbs)” value ([2]; 30 min after administration) was 0.13 ± 0.00 % ID/g and the “Radioactivity distribution Remaining whole body” value ([2]; 30 min after administration) was 0.27 ± 0.03 % ID/g. For the same molecule, the “Radioactivity distribution Small intestine” value ([2]; 30 min after administration) was 5.06 ± 0.42 % ID/g, the “Radioactivity distribution Spleen” value ([2]; 30 min after administration) was 6.69 ± 1.24 % ID/g and the “Radioactivity distribution Stomach” value ([2]; 30 min after administration) was 1.17 ± 0.29 % ID/g. The “Radioactivity distribution Testis” value ([2]; 30 min after administration) was 0.09 ± 0.02 % ID/g, the “Radioactivity distribution Whole brain” value ([2]; 30 min after administration) was 0.02 ± 0.00 % ID/g and the “Adrenal gland/blood ratio” value ([2]; 60 min after administration) was 241.20 ± 39.48. For the same molecule, the “Adrenal gland/fat ratio” value ([2]; 60 min after administration) was 194.91 ± 44.02, the “Adrenal gland/kidney ratio” value ([2]; 60 min after administration) was 18.18 ± 3.94 and the “Adrenal gland/liver ratio” value ([2]; 60 min after administration) was 27.59 ± 4.15. For the same molecule, the “Adrenal gland/muscle ratio” value ([2]; 60 min after administration) was 177.15 ± 43.41, the “Adrenal gland/small intestine ratio” value ([2]; 60 min after administration) was 3.39 ± 0.53 and the “Radioactivity distribution Adrenal gland” value ([2]; 60 min after administration) was 18.47 ± 2.05 % ID/g. For the same molecule, the “Radioactivity distribution Bladder” value ([2]; 60 min after administration) was 2.99 ± 1.26 % ID/g, the “Radioactivity distribution Blood” value ([2]; 60 min after administration) was 0.08 ± 0.01 % ID/g and the “Radioactivity distribution Fat” value ([2]; 60 min after administration) was 0.10 ± 0.02 % ID/g. The “Radioactivity distribution Femur” value ([2]; 60 min after administration) was 1.17 ± 0.10 % ID/g, the “Radioactivity distribution Heart” value ([2]; 60 min after administration) was 0.43 ± 0.08 % ID/g and the “Radioactivity distribution Kidney” value ([2]; 60 min after administration) was 1.04 ± 0.19 % ID/g. For the same molecule, the “Radioactivity distribution Large intestine” value ([2]; 60 min after administration) was 0.16 ± 0.03 % ID/g, the “Radioactivity distribution Liver” value ([2]; 60 min after administration) was 0.67 ± 0.04 % ID/g and the “Radioactivity distribution Lung” value ([2]; 60 min after administration) was 0.65 ± 0.15 % ID/g. The “Radioactivity distribution Muscle (lower limbs)” value ([2]; 60 min after administration) was 0.11 ± 0.02 % ID/g, the “Radioactivity distribution Remaining whole body” value ([2]; 60 min after administration) was 0.26 ± 0.01 % ID/g and the “Radioactivity distribution Small intestine” value ([2]; 60 min after administration) was 5.48 ± 0.49 % ID/g. For the same molecule, the “Radioactivity distribution Spleen” value ([2]; 60 min after administration) was 6.95 ± 0.95 % ID/g, the “Radioactivity distribution Stomach” value ([2]; 60 min after administration) was 1.52 ± 0.61 % ID/g and the “Radioactivity distribution Testis” value ([2]; 60 min after administration) was 0.11 ± 0.02 % ID/g. For the same molecule, the “Radioactivity distribution Whole brain” value ([2]; 60 min after administration) was 0.02 ± 0.00 % ID/g, the B2/B1 accumulation ratio [3] was 0.90 and the “B2 (PSL value, aldosterone-producing adenoma)” value ([3]; site 71b) was 5332. The “B1 (PSL value, normal adrenal cortex)” value ([3]; site 72b) was 5945.
